Experimental data as given in paper PMC6020026 (Bioorganic & medicinal chemistry letters, 2017).

Test: Cytotoxicity on differentiated THP-1 macrophages
Assay type: cell-based
Details: human
[1] = differentiated THP-1 macrophages

Row | Structure (SMILES) | CC50 [1] [µM] | CC50 [µM]
1 | C[C@@H]1[C@H](O)[C@@H](C)/C=C/C=C/C=C/C=C/C=C/C=C/C=C/[C@H](O[C@@H]2O[C@H](C)[C@@H](O)[C@H](N)[C@@H]2O)C[C@@H]2O[C@](O)(C[C@@H](O)C[C@@H](O)[C@H](O)CC[C@@H](O)C[C@@H](O)CC(=O)O[C@H]1C)C[C@H](O)[C@H]2C(=O)O [Amph.B, Amphotericin B, reference compound] | 9.8 | –
2 | O=C(/C=C/c1ccc([N+](=O)[O-])o1)c1ccc(C2CCCCC2)cc1 [LabMol-72] | 31.1 | –
3 | O=C(/C=C/c1ccc([N+](=O)[O-])o1)c1ccc(I)cc1 [LabMol-78] | 49.5 | –
4 | CC(C)(C)c1ccc(C(=O)/C=C/c2ccc([N+](=O)[O-])s2)cc1 [LabMol-86] | 8.4 | –
5 | CSc1ccc(C(=O)/C=C/c2ccc([N+](=O)[O-])o2)cc1 [LabMol-92] | – | 13.1
